Tests used:
Assay type in all cases: in vivo
[1] = tested on: AVEFA: Avena fatua; test: Post-emergence herbicidal effect
How it was run: (§1)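 Visual % activity against untreated controls, where 100% means plants died and 0% means no difference, rated about 3 weeks after treatment. Plants were sprayed at the one-leaf stage with WP or EC formulations diluted in water plus 0.5% additive, at 600 l/ha.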

[2] = tested on: AMARE: Amaranthus retroflexus; test: Post-emergence herbicidal effect
How it was run: as §1

[3] = tested on: MATIN: Matricaria inodora; test: Pre-emergence herbicidal effect; conditions: for Herbicidal action against MATIN: pre-emergence, dosage 320 g/ha
How it was run: (§2)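 Pre-emergence soil-surface spray. Formulation WP/EC, aqueous, +0.5% additive, 600 l/ha. Greenhouse ~3 wk; visual % score vs untreated (0% = control, 100% = dead).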

[4] = tested on: LOLRI: Lolium rigidum; test: Pre-emergence herbicidal effect; conditions: for Herbicidal action against LOLRI: dosage 320 g/ha
How it was run: as §2

[5] = tested on: STEME: Stellaria media; test: Pre-emergence herbicidal effect; conditions: for Herbicidal action against STEME: pre-emergence, dosage 320 g/ha
How it was run: as §2

[6] = tested on: HORMU: Hordeum murinum; test: Pre-emergence herbicidal effect; conditions: for Herbicidal action against HORMU: pre-emergence, dosage 320 g/ha
How it was run: as §2

[7] = tested on: PHBPU: Ipomoea purpurea; test: Pre-emergence herbicidal effect; conditions: for Herbicidal action against PHBPU: dosage 320 g/ha
How it was run: as §2

[8] = tested on: SETVI: Setaria viridis; test: Pre-emergence herbicidal effect; conditions: for Herbicidal action against SETVI: dosage 320 g/ha
How it was run: as §2

[9] = tested on: ECHCG: Echinochloa crus-galli; test: Pre-emergence herbicidal effect; conditions: for Herbicidal action against ECHCG: dosage 320 g/ha
How it was run: as §2

[10] = tested on: POLCO: Polygonum convolvulus; test: Pre-emergence herbicidal effect; conditions: for Herbicidal action against POLCO: dosage 320 g/ha
How it was run: as §2

[11] = tested on: ABUTH: Abutilon theophrasti; test: Pre-emergence herbicidal effect; conditions: for Herbicidal action against ABUTH: dosage 320 g/ha
How it was run: as §2

[12] = tested on: ALOMY: Alopecurus myosuroides; test: Pre-emergence herbicidal effect; conditions: for Herbicidal action against ALOMY: dosage 320 g/ha
How it was run: as §2

[13] = tested on: VIOTR: Viola tricolor; test: Pre-emergence herbicidal effect; conditions: dosage 320 g/ha
How it was run: as §2

[14] = tested on: VERPE: Veronica persica; test: Pre-emergence herbicidal effect; conditions: dosage 320 g/ha
How it was run: as §2

[15] = tested on: AVEFA: Avena fatua; test: Pre-emergence herbicidal effect; conditions: dosage 320 g/ha
How it was run: as §2

[16] = tested on: AMARE: Amaranthus retroflexus; test: Pre-emergence herbicidal effect; conditions: for Herbicidal action against AMARE: pre-emergence, dosage 320 g/ha
How it was run: as §2

[17] = tested on: STEME: Stellaria media; test: Post-emergence herbicidal effect; conditions: dosage 320 g/ha
How it was run: as §1

[18] = tested on: SETVI: Setaria viridis; test: Post-emergence herbicidal effect
How it was run: as §1

[19] = tested on: ECHCG: Echinochloa crus-galli; test: Post-emergence herbicidal effect
How it was run: as §1

[20] = tested on: ABUTH: Abutilon theophrasti; test: Post-emergence herbicidal effect
How it was run: as §1

[21] = tested on: VIOTR: Viola tricolor; test: Post-emergence herbicidal effect; conditions: dosage 320 g/ha
How it was run: as §1

[22] = tested on: VERPE: Veronica persica; test: Post-emergence herbicidal effect; conditions: dosage 320 g/ha
How it was run: as §1

[23] = tested on: LOLRI: Lolium rigidum; test: Post-emergence herbicidal effect
How it was run: as §1

[24] = tested on: ALOMY: Alopecurus myosuroides; test: Post-emergence herbicidal effect
How it was run: as §1

[25] = Table 4b, pre-emergence as titled, dosage 80 g of a.i./ha
[26] = Table 4a, dosage 20 g of a.i./ha
[27] = Table 4a, pre-emergence, dosage 20 g of a.i./ha

Row | SMILES | Herbicidal action against MATIN [3] | Herbicidal action against LOLRI [4] | Herbicidal action against STEME [5] | Herbicidal action against HORMU [6] | Herbicidal action against PHBPU [7] | Herbicidal action against SETVI ([8]; pre-emergence) | Herbicidal action against ECHCG ([9]; pre-emergence) | Herbicidal action against POLCO [10] | Herbicidal action against ABUTH [11] | Herbicidal action against ALOMY ([12]; pre-emergence) | Herbicidal action against VIOTR [13] | Herbicidal action against VERPE [14] | Herbicidal action against AVEFA [15] | Herbicidal action against AMARE [16] | Herbicidal action against STEME [17] | Herbicidal action against SETVI ([18]; dosage 320 g/ha) | Herbicidal action against ECHCG ([19]; dosage 320 g/ha) | Herbicidal action against ABUTH ([20]; dosage 320 g/ha) | Herbicidal action against VIOTR [21] | Herbicidal action against AMARE ([2]; dosage 320 g/ha) | other results
1 | Cc1ccc2c(c1)[C@H](Nc1ncc([C@H](C)O)c(N)n1)[C@@H](C)C2 (racemic) [drawing 11, reference compound] |  |  |  |  |  |  |  |  |  |  |  |  |  |  |  |  |  |  |  |  | Herbicidal action against AVEFA ([1]; dosage 80 g/ha): 0%; Herbicidal action against AVEFA ([1]; dosage 320 g/ha): 50%; Herbicidal action against AMARE ([2]; dosage 80 g/ha): 80%
2 | Cc1ccc2c(c1)[C@H](Nc1ncc(C(C)O)c(C)n1)CCC2 (stereo partly shown) [Example 1.48] | 100% | 100% | 100% | 100% | 90% | 100% | 100% | 100% | 100% | 100% | 100% | 100% | 90% | 100% | 90% | 90% | 100% | 80% | 80% | 90% | Herbicidal efficacy against MATIN [3, 25]: 70; Herbicidal efficacy against LOLRI [4, 26]: 90; Herbicidal efficacy against STEME [5, 25]: 80; Herbicidal efficacy against HORMU [6, 25]: 20; Herbicidal efficacy against PHBPU [7, 26]: 70; Herbicidal efficacy against SETVI [8, 27]: 100; Herbicidal efficacy against SETVI [8, 25]: 70; Herbicidal efficacy against ECHCG [9, 27]: 80; Herbicidal efficacy against ECHCG [9, 25]: 90; Herbicidal efficacy against POLCO [10, 26]: 100; Herbicidal efficacy against ABUTH [11, 26]: 90; Herbicidal efficacy against ALOMY [12, 27]: 70; Herbicidal efficacy against ALOMY [12, 25]: 50; Herbicidal efficacy against AMARE [16, 25]: 80; Herbicidal action against VERPE [22]: 90%
3 | CCc1ccc2c(c1)[C@H](Nc1ncc(C(C)O)c(C)n1)CC2 (stereo partly shown) [Example 1.50] | 100% | 100% | 100% | 90% | 100% | 100% | 100% | 100% | 100% | 100% | 100% | 100% | 100% | 100% | 100% | 90% | 100% | 80% | 90% | 90% | Herbicidal action against VERPE [22]: 90%
4 | Cc1nc(N[C@@H]2CCc3ccccc32)ncc1C(C)(C)O [Example 1.54] | 100% | 100% | 100% | 100% | 100% | 100% | 100% | 100% | 100% | 100% | 100% | 100% | 80% | 100% | 90% | 80% | 100% | 80% | 90% | 90% | Herbicidal action against VERPE [22]: 90%
5 | CCc1ccc2c(c1)[C@H](Nc1ncc(C(C)(C)O)c(C)n1)CC2 [Example 1.57] | 100% | 100% | 100% | 100% | 100% | 100% | 100% | 100% | 100% | 100% | 100% | 100% | 100% | 100% | 90% | 90% | 100% | 90% | 90% | 100% | Herbicidal action against VERPE [22]: 90%
6 | C=C(C)COC(C)(C)c1cnc(N[C@H]2c3cc(C)ccc3C[C@@H]2C)nc1 [Example 1.63] | 100% | 100% | 100% | 90% | 100% | 100% | 100% | 100% | 100% | 100% | 100% | 100% | 90% | 100% | 90% | 100% | 100% | 90% | 90% | 100% | Herbicidal action against VERPE [22]: 90%
7 | Cc1ccc2c(c1)[C@H](Nc1ncc(C(C)(C)O)c(N)n1)[C@@H](C)C2 [drawing 9, reference compound] |  |  |  |  |  |  |  |  |  |  |  |  |  |  |  | 30% | 10% |  |  | 70% | Herbicidal action against LOLRI ([23]; dosage 80 g/ha): 0%; Herbicidal action against LOLRI ([23]; dosage 320 g/ha): 0%; Herbicidal action against ECHCG ([19]; dosage 80 g/ha): 0%; Herbicidal action against ABUTH ([20]; dosage 80 g/ha): 30%; Herbicidal action against ALOMY ([24]; dosage 80 g/ha): 0%; Herbicidal action against ALOMY ([24]; dosage 320 g/ha): 10%; Herbicidal action against AVEFA ([1]; dosage 80 g/ha): 0%; Herbicidal action against AVEFA ([1]; dosage 320 g/ha): 0%
8 | Cc1ccc2c(c1)[C@H](Nc1ncc(C(C)(C)O)c(N)n1)[C@@H](C)C2 [drawing 10, reference compound] |  |  |  |  |  |  |  |  |  |  |  |  |  |  |  | 30% | 10% |  |  | 70% | Herbicidal action against LOLRI ([23]; dosage 80 g/ha): 0%; Herbicidal action against LOLRI ([23]; dosage 320 g/ha): 0%; Herbicidal action against SETVI ([18]; dosage 80 g/ha): 0%; Herbicidal action against ECHCG ([19]; dosage 80 g/ha): 0%; Herbicidal action against ABUTH ([20]; dosage 80 g/ha): 30%; Herbicidal action against ALOMY ([24]; dosage 80 g/ha): 0%; Herbicidal action against ALOMY ([24]; dosage 320 g/ha): 10%; Herbicidal action against AVEFA ([1]; dosage 320 g/ha): 0%; Herbicidal action against AMARE ([2]; dosage 80 g/ha): 60%
